Laboratory results taken from US20220388980A1, “QUINOLINE INHIBITORS OF RAD52 AND METHODS OF USE” (Drexel University, priority 2019, published 2022).

Target: T1, RAD52 (Homo sapiens, UniProt P43351)
T1 construct: made in house
T1 sequence (P43351 1-418): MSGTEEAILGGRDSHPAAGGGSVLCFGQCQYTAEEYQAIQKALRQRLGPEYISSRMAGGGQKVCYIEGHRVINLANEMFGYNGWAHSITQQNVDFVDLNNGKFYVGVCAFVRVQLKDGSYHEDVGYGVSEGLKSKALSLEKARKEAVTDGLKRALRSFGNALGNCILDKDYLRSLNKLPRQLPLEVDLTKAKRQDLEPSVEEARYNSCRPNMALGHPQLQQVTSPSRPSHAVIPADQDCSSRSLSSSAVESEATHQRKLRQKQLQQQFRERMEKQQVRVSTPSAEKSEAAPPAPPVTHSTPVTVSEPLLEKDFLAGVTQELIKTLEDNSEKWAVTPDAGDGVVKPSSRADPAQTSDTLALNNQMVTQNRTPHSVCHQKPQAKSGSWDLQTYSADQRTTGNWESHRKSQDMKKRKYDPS
Assay: D-loop formation assay
Format: biochemical
Conditions: compound at 10 μM; 32P-labeled ssDNA (oligo 90) and supercoiled pUC19 DNA, 37° C.

| D-Loop (% @10 μM) [%] | SMILES |
| --- | --- |
| 53.78 | CCN(CC)CCNC(=S)Nc1ccc2nc(N3CCN(C(=O)C4CCCN4)CC3)cc(C)c2c1 (centres unmarked) [compound 0054] |
| 27.42 | CCN(CC)CCNC(=S)Nc1ccc2nc(N3CCN(C(=O)C4CNCCN4)CC3)cc(C)c2c1 (centres unmarked) [compound 0055] |
| 0.31 | CCN1CCN(c2cc(C)c3cc(NC(=S)NCCCCCN)ccc3n2)CC1 [compound 0056] |
| 52.1 | CCN1CCN(c2cc(C)c3cc(NC(=S)NCCCNC)ccc3n2)CC1 [compound 0057] |
| 25.89 | CCN1CCN(c2cc(C)c3cc(NC(=S)N(C)CCCN)ccc3n2)CC1 [compound 0058] |
| 1.3 | Cc1cc(N2CCN(CC3CCCNC3)CC2)nc2ccc(NC(=S)NCCN3CCCCCC3)cc12 (centres unmarked) [compound 0059] |
| 0.66 | Cc1cc(N2CCN(CC3CCNCC3)CC2)nc2ccc(NC(=S)NCCN3CCCCCC3)cc12 [compound 0060] |
| 1.89 | Cc1cc(N2CCN(CC3CCCNC3)CC2)nc2ccc(NC(=S)NCCCN3CCCCCC3)cc12 (centres unmarked) [compound 0062] |
| 1.58 | Cc1cc(N2CCN(CC3CCNCC3)CC2)nc2ccc(NC(=S)NCCCN3CCCCCC3)cc12 [compound 0063] |
| 1.5 | Cc1cc(N2CCN(CC3CCCNC3)CC2)nc2ccc(NC(=S)NCCCN3CCCC3)cc12 (centres unmarked) [compound 0064] |
| 1.04 | Cc1cc(N2CCN(CC3CCNCC3)CC2)nc2ccc(NC(=S)NCCCN3CCCC3)cc12 [compound 0065] |
| 35.65 | CCN1CCN(c2cc(C)c3cc(NC(=S)NCCCCN(C)C)ccc3n2)CC1 [compound 0067] |
| 30.62 | CCN1CCN(c2cc(C)c3cc(NC(=S)NCCCN4CCCC4)ccc3n2)CC1 [compound 0068] |
| 20.7 | CCN1CCN(c2cc(C)c3cc(NC(=S)NCCC4CCCN4)ccc3n2)CC1 (centres unmarked) [compound 0069] |
| 16.42 | CCN1CCN(c2cc(C)c3cc(NC(=S)NCCN4CCC(CN5CCCC5)C4)ccc3n2)CC1 (centres unmarked) [compound 0073] |
| 21.2 | CCN1CCN(c2cc(C)c3cc(NC(=S)NCCCN)ccc3n2)CC1 [compound 0077] |
| 25.15 | CCN1CCN(c2cc(C)c3cc(NC(=S)NCCCN4CCNCC4)ccc3n2)CC1 [compound 0079] |
| 35.63 | CCN(CC)CCNC(=S)Nc1ccc2nc(N3CCN(CCN)CC3)cc(C)c2c1 [compound 0080] |

| D-Loop (% @10 μM) [%] | SMILES |
| --- | --- |
| 68.84 | CCN(CC)CCNC(=S)Nc1ccc2nc(N3CCN(Cc4nccn4C)CC3)cc(C)c2c1 [compound 0084] |
| 4.44 | CCN(CC)CCNC(=S)Nc1ccc2nc(N3CCN(CC(N)CO)CC3)cc(C)c2c1 (centres unmarked) [compound 0086] |
| 0 | CCN(CC)CCNC(=S)Nc1ccc2nc(N3CCN(CCC4CCC(N)CC4)CC3)cc(C)c2c1 (centres unmarked) [compound 0087] |
| 8.25 | CCN(CC)CCNC(=S)Nc1ccc2nc(N3CCCC3)cc(C)c2c1 [compound 0088] |
| 3.48 | Cc1cc(N2CCCC2)nc2ccc(NC(=S)NCCN3CCCCCC3)cc12 [compound 0089] |
| 2.93 | Cc1cc(N2CCCC2)nc2ccc(NC(=S)NCCN3CCCCC3)cc12 [compound 0090] |
| 3.47 | Cc1cc(N2CCCC2)nc2ccc(NC(=S)NCCCN3CCCCC3)cc12 [compound 0091] |
| 5.98 | Cc1cc(N2CCCC2)nc2ccc(NC(=S)NCCCN3CCCC3)cc12 [compound 0092] |
| 4.86 | Cc1cc(N2CCCC2)nc2ccc(NC(=S)NCCN)cc12 [compound 0093] |
| 4.26 | Cc1cc(N2CCCC2)nc2ccc(NC(=S)NCCCN)cc12 [compound 0094] |
| 4.51 | Cc1cc(N2CCCC2)nc2ccc(NC(=S)NCCCCN)cc12 [compound 0095] |
| 3.99 | Cc1cc(N2CCCC2)nc2ccc(NC(=S)NCCN3CCNCC3)cc12 [compound 0096] |
| 4.72 | Cc1cc(N2CCCC2)nc2ccc(NC(=S)NCCN3CCN(C)CC3)cc12 [compound 0097] |
| 70.99 | CCN(CC)CCNC(=S)Nc1ccc2nc(N3CCCCC3)cc(C)c2c1 [compound 0098] |
| 67.50 | Cc1cc(N2CCCCC2)nc2ccc(NC(=S)NCCN3CCCCCC3)cc12 [compound 0099] |
| 0.34 | Cc1cc(N2CCN(CC3CCNCC3)CC2)nc2ccc(NC(=O)NCCCN3CCCCCC3)cc12 [compound 0113, 1-(3-(azepan-1-yl)propyl)-3-(4-methyl-2-(4-(piperidin-4-ylmethyl)piperazin-1-yl)quinolin-6-yl)urea] |
| 16 | CCN(CC)CCNC(=O)C(=O)Nc1ccc2nc(N3CCN(CC)CC3)cc(C)c2c1 [compound 0114, N^1-(2-(diethylamino)ethyl)-N^2-(2-(4-ethylpiperazin-1-yl)-4-methylquinolin-6-yl)oxalamide] |

More lines, now with the values behind:

| SMILES | D-Loop (% @10 μM) [%] |
| --- | --- |
| S=C(NCCN1CCCCCC1)Nc1ccc2nc(N3CCNCC3)ccc2c1 [compound 0021] | 40.29 |
| S=C(NCCCN1CCCCCC1)Nc1ccc2nc(N3CCNCC3)ccc2c1 [compound 0022] | 37.7 |
| CCN1CCN(c2cc(C)c3cc(NC(=S)NCCN4CCCCC4)ccc3n2)CC1 [compound 0025] | 36.08 |
| CCN1CCN(c2cc(C)c3cc(NC(=S)NCCCN4CCCCC4)ccc3n2)CC1 [compound 0026] | 11.42 |
| CCN1CCN(c2cc(C)c3cc(NC(=S)NCCN4CCCCCC4)ccc3n2)CC1 [compound 0027] | 23.26 |
| CCN1CCN(c2cc(C)c3cc(NC(=S)NCCCN4CCCCCC4)ccc3n2)CC1 [compound 0028] | 46.57 |
| CCN1CCN(c2cc(C)c3cc(NC(=S)NCCN4CCCC4)ccc3n2)CC1 [compound 0029] | 46.67 |
| CCN1CCN(c2cc(C)c3cc(NC(=S)NCCN)ccc3n2)CC1 [compound 0033] | 12.77 |
| CCN1CCN(c2cc(C)c3cc(NC(=S)NCCN(C(C)C)C(C)C)ccc3n2)CC1 [compound 0035] | 64.68 |
| CCN(CC)CCCCNC(=S)Nc1ccc2nc(N3CCN(CC)CC3)cc(C)c2c1 [compound 0036] | 64.62 |
| CCN(CC)CCNC(=O)Nc1ccc2nc(N3CCN(CC)CC3)cc(C)c2c1 [compound 0038, 1-(2-(diethylamino)ethyl)-3-(2-(4-ethylpiperazin-1-yl)-4-methylquinolin-6-yl)urea] | 77.7 |
| CCN1CCN(c2cc(C)c3cc(NC(=O)NCCCN4CCCCCC4)ccc3n2)CC1 [compound 0039, 1-(3-(azepan-1-yl)propyl)-3-(2-(4-ethylpiperazin-1-yl)-4-methylquinolin-6-yl)urea] | 93.38 |
| CCN1CCN(c2cc(C)c3cc(NC(=S)NCCN4CCCCCCC4)ccc3n2)CC1 [compound 0041] | 62.62 |
| CCN1CCN(c2cc(C)c3cc(NC(=S)NCCCN4CCC4)ccc3n2)CC1 [compound 0042] | 53.70 |
| CCN1CCN(c2cc(C)c3cc(NC(=S)NCC(C)(CN)CN)ccc3n2)CC1 [compound 0044] | 50.05 |
| CCN1CCN(c2cc(C)c3cc(NC(=S)NCCN4CCNCC4)ccc3n2)CC1 [compound 0045] | 55.68 |
| CCN1CCN(c2cc(C)c3cc(NC(=S)NCCN4CCN(C)CC4)ccc3n2)CC1 [compound 0046] | 18.73 |
| CCN1CCN(c2cc(C)c3cc(NC(=S)NCCCCN)ccc3n2)CC1 [compound 0047] | 7.92 |
| CCN(CC)CCNC(=S)Nc1ccc2nc(N3CCNCC3)cc(C)c2c1 [compound 0048] | 15.65 |
| CCN(CC)CCNC(=S)Nc1ccc2nc(N3CCN(CC4CC4)CC3)cc(C)c2c1 [compound 0049] | 44.4 |
| CCN(CC)CCNC(=S)Nc1ccc2nc(N3CCN(CC4CCCCC4)CC3)cc(C)c2c1 [compound 0050] | 62.82 |
| CCN(CC)CCNC(=S)Nc1ccc2nc(N3CCN(CC4CCCNC4)CC3)cc(C)c2c1 (centres unmarked) [compound 0051] | 10.13 |
| CCN(CC)CCNC(=S)Nc1ccc2nc(N3CCN(CC4CCNCC4)CC3)cc(C)c2c1 [compound 0052] | 4.07 |
| CCC(C)[C@H](N)C(=O)N1CCN(c2cc(C)c3cc(NC(=S)NCCN(CC)CC)ccc3n2)CC1 (some centres unmarked) [compound 0053] | 54.13 |
